experiment: Test of compactability of different sugar alcohols (crushing strength vs compression force); format: physicochemical; conditions: pure sugar alcohol compacts, single punch press, punch and die lubricated with magnesium stearate; FIG. 1
Description: Tablets comprising either Neosorb P100T, Sorbidex P1666BO, Isomalt ST-PF, Maltisorb P90, Mannitol 60 or Xylitol CM50 were compressed on an instrumented Fette Exacta 1/F single punch tablet press, only maximum compression force on the upper punch was recorded.
Before the compression of each tablet the punch tips and the die bore were lubricated with a 5% suspension of magnesium stearate in acetone. The acetone was allowed to evaporate before compression of the tablet.
The sugar alcohol was weighed, transferred to the die bore and then compressed, see table 1. Immediately after ejection the tablet was tested for crushing strength.
From FIG. 1 (each point is the average of three measurements) it is seen that the assumption was correct. Therefore, test of particle size was not repeated for the other sugar alcohols.
The tabletting machine used is equipped with data acquisition that as a minimum measure the compaction force applied. However, any tabletting machine may be used provided the compaction force applied can be measured.
The crushing strength has been measured by use of a Schleuniger-2E from the company Dr. Schleuniger and determined as the mean of measuring the crushing strength for 10 individual tablets.

Compound | compactability (slope of the correlation between compression force and crushing strength)
OC[C@@H](O)[C@@H](O[C@H]1O[C@H](CO)[C@@H](O)[C@H](O)[C@H]1O)[C@H](O)[C@@H](O)CO [Maltitol] | very poor compactability
OC[C@@H](O)[C@@H](O)[C@H](O)[C@H](O)CO [mannitol, Mannitol] | very poor compactability
Isomalt | Sorbitol is followed by isomalt

Further lines, results first:

compactability (slope of the correlation between compression force and crushing strength) | Compound
best compactability | OC[C@@H](O)[C@@H](O)[C@H](O)[C@@H](O)CO [sorbitol, Sorbitol]
very poor compactability | OC[C@@H](O)[C@H](O)[C@@H](O)CO [xylitol, Xylitol]

same assay, conditions: two mean particle sizes, 38 μm and 110 μm; FIG. 1

tablet crushing strength, dependence on particle size | Compound
independent of particle size | OC[C@@H](O)[C@@H](O)[C@H](O)[C@@H](O)CO [sorbitol, Sorbitol]

— US9101565B2, “Dissolution stability of calcium carbonate tablets” (TAKEDA NYCOMED AS, priority 2008, dated 2015)
